Test results taken from patent US8445509B2, “Fused heterocyclic derivatives and use thereof” (Takeda Pharmaceutical Company Limited, priority 2008, dated 2013).

Key:
[1] = molecular target: T1, VEGFR2 intracellular domain protein (Homo sapiens, UniProt P35968); assay: Vascular endothelial growth factor receptor 2 (VEGFR2) kinase inhibitory activity (AlphaScreen); type: biochemical
T1 construct: made in house; host or cells: SF-21 insect cells, recombinant baculovirus BAC-VEGFR2
Method: Human vascular endothelial growth factor receptor 2 (hereinafter to be referred to as VEGFR2) gene was cloned by PCR using cDNA Libraries Human Placenta (Clontech) as a template. […] The primer base sequence is shown below.
SF-21 cells were sown at 1×10^6 cells/mL to Sf-900II SFM medium (1 L, Invitrogen) containing 10% fetal bovine serum (trace), 50 mg/L Gentamicin (Invitrogen) and 0.1% Pluronic F-68 (Invitrogen), and shaking culture was performed using a 2 L volume Erlenmeyer flask at 27° C., 100 rpm. After culturing for 24 hrs, recombinant baculovirus BAC-VEGFR2 (13.4 mL) was added to the mixture, and the mixture was further cultured for 3 days. The culture medium was centrifuged at 2,000 rpm for 5 min to give virus-infected cells. The infected cells were washed with a phosphate buffered saline (Invitrogen), centrifuged under the same conditions, and the cells were preserved at −80° C. The cryopreserved cells were thawed in ice, suspended in buffer A (50 mM Tris buffer (30 mL, pH 7.4) containing 20% glycerol, 0.15 M NaCl) supplemented with Complete Protease Inhibitor (Boehringer), and ruptured 3 times with a Polytron homogenizer (Kinematica) at 20,000 rpm for 30 sec. The ruptured medium was clarified by centrifugation at 40,000 rpm for 30 min and filtered with a 0.45 μm filter. The filtrate was passed through a column packed with Anti-FLAG M2 Affinity Gel (4 mL, Sigma) at a flow rate of about 0.5 mL/min. The column was washed with buffer A, and eluted with buffer A containing 100 μg/mL of FLAG peptide. The eluate was concentrated with Vivaspin 20 (Vivascience) having a molecular weight cut off of 30K. The buffer of this concentrate was exchanged using NAP™ 25 column (Amersham Bioscience) equilibrated with buffer A. The fractions containing intracellular domain protein of VEGFR2 were collected, glycerol was added to the final concentration of 50% and cryopreserved at −80° C.
A test compound dissolved in dimethyl sulfoxide (DMSO) was diluted with a buffer (50 mM Tris-HCl (pH 7.5), 5 mM MgCl2, 5 mM MnCl2, 2 mM dithiothreitol, 0.01% Tween-20). To this compound solution (5 μL) was added a buffer (10 μL) containing 50 ng/mL of VEGFR2 intracellular domain protein and 250 ng/mL of biotin labeled polypeptide biotinyl-poly-Glu:Tyr (4:1) (CIS bio International). […] The reaction solution was allowed to stand at 25° C. for 16 hrs, and the wells were counted using a plate reader (Fusion™ (PerkinElmer)). The kinase inhibitory rate (%) of the test compound was calculated by the following formula: Inhibitory rate (%)=(1−(count of test compound−blank)÷(control−blank))×100
The count of the solution reacted without addition of the compound was used as a “control”, and the count of the solution without the compound and ATP was used as a “blank”.

[2] = molecular target: T2, Tie2 intracellular domain protein (Homo sapiens, UniProt Q02763); assay: TIE2 kinase inhibitory activity (AlphaScreen); type: biochemical
T2 construct: 50 ng/mL of Tie2 intracellular domain protein (Millipore); purchased Millipore
T2 sequence (Q02763 770-1124 limits assumed): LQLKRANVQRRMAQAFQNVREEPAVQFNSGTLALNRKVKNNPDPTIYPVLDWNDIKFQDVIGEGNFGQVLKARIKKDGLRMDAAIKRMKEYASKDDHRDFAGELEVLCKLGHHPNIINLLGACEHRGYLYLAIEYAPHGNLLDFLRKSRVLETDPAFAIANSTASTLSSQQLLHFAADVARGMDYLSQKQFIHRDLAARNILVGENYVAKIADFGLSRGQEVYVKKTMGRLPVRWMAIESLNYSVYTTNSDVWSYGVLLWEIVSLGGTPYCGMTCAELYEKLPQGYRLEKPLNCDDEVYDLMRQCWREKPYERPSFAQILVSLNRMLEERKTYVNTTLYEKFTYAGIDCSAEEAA

[3] = system: Human blood cell cancer cell line MV-4-11; assay: Human blood cell cancer cell line MV-4-11 growth inhibitory test; type: cell-based; details: MV4-11, 72 h, culture for 3 days; for inhibition at 1 µM: 1 μM test substance, read-out: inhibitory rate (%) at 1 μM

T1 sequence (P35968 786-1356 limits assumed): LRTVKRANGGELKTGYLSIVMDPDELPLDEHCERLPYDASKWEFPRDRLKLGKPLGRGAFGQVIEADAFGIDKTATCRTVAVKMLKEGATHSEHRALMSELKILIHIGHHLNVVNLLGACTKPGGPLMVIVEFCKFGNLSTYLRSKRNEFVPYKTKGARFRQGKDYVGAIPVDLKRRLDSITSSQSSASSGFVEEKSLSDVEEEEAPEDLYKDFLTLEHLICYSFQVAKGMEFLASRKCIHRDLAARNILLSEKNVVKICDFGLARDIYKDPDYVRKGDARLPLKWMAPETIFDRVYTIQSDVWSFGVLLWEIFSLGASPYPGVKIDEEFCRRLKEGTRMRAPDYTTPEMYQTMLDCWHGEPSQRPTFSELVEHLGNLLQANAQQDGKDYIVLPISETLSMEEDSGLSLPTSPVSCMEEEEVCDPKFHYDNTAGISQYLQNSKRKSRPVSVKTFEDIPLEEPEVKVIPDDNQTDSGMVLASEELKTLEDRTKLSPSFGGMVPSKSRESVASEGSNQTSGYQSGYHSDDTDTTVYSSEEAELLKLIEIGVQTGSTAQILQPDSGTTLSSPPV

| Structure (SMILES) | IC50 [1] [µM] | IC50 [2] [µM] | IC50 [3] [µM] | inhibition at 1 µM [3] [%] |
| --- | --- | --- | --- | --- |
| Cc1ccc(C(=O)Nc2ccc(Oc3ccc4nc(NC(=O)C5CC5)cn4c3)cc2F)[n+]([O-])c1-c1ccc(F)cc1 [Example 84, N-[4-({2-[(cyclopropylcarbonyl)amino]imidazo[1,2-a]pyridin-6-yl}oxy)-2-fluorophenyl]-6-(4-fluorophenyl)-5-methylpyridine-2-carboxamide 1-oxide] | ≤ 1 | ≤ 1 | ≤ 1 | ≥ 90 |
| Cc1ccc(C(=O)Nc2ccc(Oc3ccc4nc(NC(=O)C5CC5)cn4c3)cc2)c(=O)n1-c1ccc(F)cc1 [Example 28, N-[4-({2-[(cyclopropylcarbonyl)amino]imidazo[1,2-a]pyridin-6-yl}oxy)phenyl]-1-(4-fluorophenyl)-6-methyl-2-oxo-1,2-dihydropyridine-3-carboxamide] | ≤ 1 | ≤ 1 | ≤ 1 | ≥ 90 |
| Cc1ccc(C(=O)Nc2ccc(Oc3ccc4nc(NC(=O)C5CC5)cn4c3)c(Cl)c2)c(=O)n1-c1ccc(F)cc1 [Example 57, N-[3-chloro-4-({2-[(cyclopropylcarbonyl)amino]imidazo[1,2-a]pyridin-6-yl}oxy)phenyl]-1-(4-fluorophenyl)-6-methyl-2-oxo-1,2-dihydropyridine-3-carboxamide] | ≤ 1 | ≤ 1 | ≤ 1 | ≥ 90 |
| O=C(Nc1cn2cc(Oc3ccc(NC(=O)C4(C(=O)Nc5ccccc5)CC4)cc3F)ccc2n1)C1CC1 [Example 14, N-[4-({2-[(cyclopropylcarbonyl)amino]imidazo[1,2-a]pyridin-6-yl}oxy)-3-fluorophenyl]-N′-phenylcyclopropane-1,1-dicarboxamide] | ≤ 1 | ≤ 1 | ≤ 1 | ≥ 90 |
| Cc1cc(C(=O)Nc2ccc(Oc3ccc4nc(NC(=O)C5CC5)cn4c3)c(F)c2)c(=O)n(-c2ccc(F)cc2)c1C [Example 70, N-[4-({2-[(cyclopropylcarbonyl)amino]imidazo[1,2-a]pyridin-6-yl}oxy)-3-fluorophenyl]-1-(4-fluorophenyl)-5,6-dimethyl-2-oxo-1,2-dihydropyridine-3-carboxamide] | ≤ 1 | ≤ 1 | ≤ 1 | ≥ 90 |
| Cc1ccc(C(=O)Nc2ccc(Oc3ccn4nc(NC(=O)C5CC5)nc4c3)c(F)c2)c(=O)n1-c1ccc(F)cc1 [Example 76, N-[4-({2-[(cyclopropylcarbonyl)amino][1,2,4]triazolo[1,5-a]pyridine-7-yl}oxy)-3-fluorophenyl]-1-(4-fluorophenyl)-6-methyl-2-oxo-1,2-dihydropyridine-3-carboxamide] | ≤ 1 | ≤ 1 | ≤ 1 | ≥ 90 |
| Cc1ccc(C(=O)Nc2ccc(Oc3ccc4nc(NC(=O)C5CC5)cn4c3)c(F)c2)[n+]([O-])c1-c1ccc(F)cc1 [Example 29, N-[4-({2-[(cyclopropylcarbonyl)amino]imidazo[1,2-a]pyridin-6-yl}oxy)-3-fluorophenyl]-6-(4-fluorophenyl)-5-methylpyridine-2-carboxamide 1-oxide] | ≤ 1 | ≤ 1 | ≤ 1 | ≥ 90 |

Continued, in another order:

| IC50 [1] [µM] | IC50 [2] [µM] | IC50 [3] [µM] | Structure (SMILES) | inhibition at 1 µM [3] [%] |
| --- | --- | --- | --- | --- |
| ≤ 1 | ≤ 1 | ≤ 1 | Cc1ccc(C(=O)Nc2ccc(Oc3ccc4nc(NC(=O)C5CC5)cn4c3)cn2)c(=O)n1-c1ccc(F)cc1 [Example 60, N-[5-({2-[(cyclopropylcarbonyl)amino]imidazo[1,2-a]pyridin-6-yl}oxy)pyridin-2-yl]-1-(4-fluorophenyl)-6-methyl-2-oxo-1,2-dihydropyridine-3-carboxamide] | ≥ 90 |
| ≤ 1 | ≤ 1 | ≤ 1 | Cc1ccc(C(=O)Nc2ccc(Oc3ccc4nc(NC(=O)C5CC5)cn4c3)c(F)c2)c(=O)n1-c1cccc(F)c1 [Example 75, N-[4-({2-[(cyclopropylcarbonyl)amino]imidazo[1,2-a]pyridin-6-yl}oxy)-3-fluorophenyl]-1-(3-fluorophenyl)-6-methyl-2-oxo-1,2-dihydropyridine-3-carboxamide] | ≥ 90 |
| ≤ 1 | ≤ 1 | ≤ 1 | Cc1ccc(C(=O)Nc2ccc(Oc3ccc4nc(NC(=O)C5CC5)cn4c3)c(F)c2)[n+]([O-])c1-c1cccc(F)c1 [Example 93, N-[4-({2-[(cyclopropylcarbonyl)amino]imidazo[1,2-a]pyridin-6-yl}oxy)-3-fluorophenyl]-6-(3-fluorophenyl)-5-methylpyridine-2-carboxamide 1-oxide] | ≥ 90 |
| ≤ 1 | ≤ 1 | ≤ 1 | Cc1ccc(C(=O)Nc2ccc(Oc3ccc4nc(NC(=O)C5CC5)cn4c3)cc2)[n+]([O-])c1-c1ccc(F)cc1 [Example 72, N-[4-({2-[(cyclopropylcarbonyl)amino]imidazo[1,2-a]pyridin-6-yl}oxy)phenyl]-6-(4-fluorophenyl)-5-methylpyridine-2-carboxamide 1-oxide] | ≥ 90 |
| ≤ 1 | ≤ 1 | ≤ 1 | O=C(Nc1nc2ccc(Oc3ccc(NC(=O)C4(C(=O)Nc5ccccc5)CC4)cc3F)cc2s1)C1CC1 [Example 18, N-[4-({2-[(cyclopropylcarbonyl)amino]-1,3-benzothiazol-6-yl}oxy)-3-fluorophenyl]-N′-phenylcyclopropane-1,1-dicarboxamide] | ≥ 90 |
| ≤ 1 | ≤ 1 | ≤ 1 | Cc1ccc(C(=O)Nc2ccc(Oc3ccc4nc(NC(=O)C5CC5)cn4c3)c(F)c2)c(=O)n1-c1ccc(F)c(F)c1 [Example 45, N-[4-({2-[(cyclopropylcarbonyl)amino]imidazo[1,2-a]pyridin-6-yl}oxy)-3-fluorophenyl]-1-(3,4-difluorophenyl)-6-methyl-2-oxo-1,2-dihydropyridine-3-carboxamide] | ≥ 90 |
| ≤ 1 | ≤ 1 | ≤ 1 | Cc1ccc(C(=O)Nc2ccc(Oc3ccc4nc(NC(=O)C5CC5)cn4c3)cn2)[n+]([O-])c1-c1ccc(F)cc1 [Example 61, N-[5-({2-[(cyclopropylcarbonyl)amino]imidazo[1,2-a]pyridin-6-yl}oxy)pyridin-2-yl]-6-(4-fluorophenyl)-5-methylpyridine-2-carboxamide 1-oxide] | ≥ 90 |
| ≤ 1 | ≤ 1 | ≤ 1 | CC1CCN(C(=O)Nc2ccc(Oc3ccc4nc(NC(=O)C5CC5)cn4c3)c(F)c2)C(=O)N1c1ccc(F)cc1 (stereo not shown) [Example 80, N-[4-({2-[(cyclopropylcarbonyl)amino]imidazo[1,2-a]pyridin-6-yl}oxy)-3-fluorophenyl]-3-(4-fluorophenyl)-4-methyl-2-oxotetrahydropyrimidine-1(2H)-carboxamide] | ≥ 90 |
| ≤ 1 | ≤ 1 | ≤ 1 | Cc1cc(C(=O)Nc2ccc(Oc3ccc4nc(NC(=O)C5CC5)cn4c3)c(F)c2)c(=O)n(-c2ccc(F)cc2)c1 [Example 66, N-[4-({2-[(cyclopropylcarbonyl)amino]imidazo[1,2-a]pyridin-6-yl}oxy)-3-fluorophenyl]-1-(4-fluorophenyl)-5-methyl-2-oxo-1,2-dihydropyridine-3-carboxamide] | ≥ 90 |
